Results as given in patent US20020137929A1, “1 - (3-heterocyclylphenyl) isothiourea, -isourea, -guanidine and -amidine herbicidal agents” (Intellectual Property Department, BASF Aktiengesellschaft, priority 1998, published 2002).

What was measured:
[1] = system: ORYSAT (Rice, Tebonnet); assay: Preemergence herbicidal evaluation; assay type: in vivo, Oryza sativa, (L.) Tebonnet; conditions: rated 4-5 weeks after treatment
How it was run: (§1)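 Test compound, dissolved in aqueous acetone, was sprayed over planted soil cups at an equivalent of about 0.0156 to 0.500 kg/ha; seeds had been mixed with potting soil. Greenhouse growth followed, with visual 0-9 scoring of injury at four to five weeks.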

[2] = system: ECHORC (Watergrass (Calif.)); assay: Postemergence weed control under flooded paddy conditions; assay type: in vivo, Echinochloa oryzoides; conditions: postemergence weeds, rated 3 to 4 weeks after treatment
How it was run: (§2)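 Herbicidal effect is judged by eye on a 0–9 scale versus control, 3–4 weeks after dosing. Dosing is into flood water kept 1.5–3 cm over the soil, at about 0.0313–0.500 kg/ha in aqueous/acetone 50/50 v/v, on 3–5 cm weeds and 1.5–2.5-leaf rice seedlings.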

[3] = system: ZEAMX (Corn, Field); assay: Postemergence herbicidal evaluation; assay type: in vivo, Zea mays; conditions: postemergence
How it was run: (§3)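 Compound is applied as a foliar spray to seedlings about two weeks old, formulated in equal parts acetone and water with 0.5% TWEEN 20 and delivered at 40 psi to give about 0.0156–0.500 kg per hectare. Injury is rated visually 0–9 after four to five weeks.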

[4] = system: CHEAL (Lambsquarters, Common); assay: Preemergence herbicidal evaluation; assay type: in vivo, Chenopodium album; conditions: rated 4-5 weeks after treatment
How it was run: as §1

[5] = system: CASOB (Sicklepod); assay: Postemergence herbicidal evaluation; assay type: in vivo, Cassia obtusifolia; conditions: postemergence
How it was run: as §3

[6] = system: ECHORC (Watergrass (Calif.)); assay: Preemergence weed control under flooded paddy conditions; assay type: in vivo, Echinochloa oryzoides; conditions: rated 3-4 weeks after treatment
How it was run: (§4)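 Ratings on a 0-9 visual scale cover stand, vigor, malformation, size, chlorosis and overall appearance relative to a control, taken three to four weeks post-treatment. Application was into flood water over freshly sown silt loam at roughly 0.0313 to 0.500 kg/ha.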

[7] = system: GALAP (Galium); assay: Postemergence herbicidal evaluation; assay type: in vivo, Galium aparine; conditions: postemergence
How it was run: as §3

[8] = system: ZEAMX (Corn, Field); assay: Preemergence herbicidal evaluation; assay type: in vivo, Zea mays; conditions: rated 4-5 weeks after treatment
How it was run: as §1

[9] = system: AMBEL (Ragweed, Common); assay: Preemergence herbicidal evaluation; assay type: in vivo, Ambrosia artemisifolia; conditions: rated 4-5 weeks after treatment
How it was run: as §1

[10] = system: TRZAWR (Wheat, Winter, cv Riband); assay: Preemergence herbicidal evaluation; assay type: in vivo, Triticum aestivum; conditions: rated 4-5 weeks after treatment
How it was run: as §1

[11] = system: CYPSE (Flatsedge); assay: Preemergence weed control under flooded paddy conditions; assay type: in vivo, Cyperus serotinus; conditions: rated 3-4 weeks after treatment
How it was run: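 Seeds or propagules sown in silt loam kept flooded 1.5-3 cm; compounds in 50/50 acetone/water pipetted into flood water at about 0.0313 to 0.500 kg/ha. Greenhouse; visual 0-9 rating versus untreated control 3-4 weeks after treatment.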

[12] = system: IPOHE (Morningglory, Ivyleaf); assay: Preemergence herbicidal evaluation; assay type: in vivo, Ipomoea hederacea; conditions: rated 4-5 weeks after treatment
How it was run: as §1

[13] = system: CYPIR (Rice Flatsedge); assay: Preemergence weed control under flooded paddy conditions; assay type: in vivo, Cyperus iria; conditions: rated 3-4 weeks after treatment
How it was run: as §4

[14] = system: CYPSE (Flatsedge); assay: Postemergence weed control under flooded paddy conditions; assay type: in vivo, Cyperus serotinus; conditions: postemergence weeds, rated 3 to 4 weeks after treatment
How it was run: as §2

## COC(=O)[C@H](Cc1ccc([N+](=O)[O-])cc1)N1C(=O)CSC1=Nc1cc(-n2c(=O)cc(C(F)(F)F)n(C)c2=O)c(F)cc1Cl [Compound 78, Methyl 2-{{2-chloro-5-[3,6-dihydro-3-methyl-2,6-dioxo-4-(trifluoromethyl)-1(2H)-pyrimidinyl]-4-fluorophenyl}imino}-4-oxo-α-(p-nitrobenzyl)-3-thiazolidineacetate, L-]
[1]; rate 0.0156 kg/ha
  Preemergence herbicidal rating ORYSAT: 0.0
[1]; rate 0.0313 kg/ha
  Preemergence herbicidal rating ORYSAT: 0.0
[1]; rate 0.0625 kg/ha
  Preemergence herbicidal rating ORYSAT: 0.0
[1]; rate 0.1250 kg/ha
  Preemergence herbicidal rating ORYSAT: 0.0
[1]; rate 0.2500 kg/ha
  Preemergence herbicidal rating ORYSAT: 0.0
[2]; Rate 0.0313 kg/ha
  Herbicidal rating ECHORC: 7.0
[2]; Rate 0.0625 kg/ha
  Herbicidal rating ECHORC: 7.0
[2]; Rate 0.1250 kg/ha
  Herbicidal rating ECHORC: 9.0
[2]; Rate 0.2500 kg/ha
  Herbicidal rating ECHORC: 9.0
[3]; rate 0.0158 kg/ha
  ZEAMX herbicidal rating: 4.5
[3]; rate 0.0315 kg/ha
  ZEAMX herbicidal rating: 5.0
[3]; rate 0.0630 kg/ha
  ZEAMX herbicidal rating: 5.0
[4]; rate 0.0156 kg/ha
  Preemergence herbicidal rating CHEAL: 9.0
[4]; rate 0.0313 kg/ha
  Preemergence herbicidal rating CHEAL: 9.0
[4]; rate 0.0625 kg/ha
  Preemergence herbicidal rating CHEAL: 9.0
[4]; rate 0.1250 kg/ha
  Preemergence herbicidal rating CHEAL: 9.0
[4]; rate 0.2500 kg/ha
  Preemergence herbicidal rating CHEAL: 9.0
[5]; rate 0.0158 kg/ha
  CASOB herbicidal rating: 1.0
[5]; rate 0.0315 kg/ha
  CASOB herbicidal rating: 1.0
[5]; rate 0.0630 kg/ha
  CASOB herbicidal rating: 3.0
[6]; 0.0313 kg/ha
  ECHORC herbicidal effect rating: 7.0
[6]; 0.0625 kg/ha
  ECHORC herbicidal effect rating: 7.0
[6]; 0.1250 kg/ha
  ECHORC herbicidal effect rating: 9.0
[6]; 0.2500 kg/ha
  ECHORC herbicidal effect rating: 9.0
[7]; rate 0.0158 kg/ha
  GALAP herbicidal rating: 1.0
[7]; rate 0.0315 kg/ha
  GALAP herbicidal rating: 1.0
[7]; rate 0.0630 kg/ha
  GALAP herbicidal rating: 2.0
[8]; rate 0.0156 kg/ha
  Preemergence herbicidal rating ZEAMX: 0.0
[8]; rate 0.0313 kg/ha
  Preemergence herbicidal rating ZEAMX: 0.0
[8]; rate 0.0625 kg/ha
  Preemergence herbicidal rating ZEAMX: 0.0
[8]; rate 0.1250 kg/ha
  Preemergence herbicidal rating ZEAMX: 0.0
[8]; rate 0.2500 kg/ha
  Preemergence herbicidal rating ZEAMX: 1.0
[9]; rate 0.0156 kg/ha
  Preemergence herbicidal rating AMBEL: 0.0
[9]; rate 0.0313 kg/ha
  Preemergence herbicidal rating AMBEL: 0.0
[9]; rate 0.0625 kg/ha
  Preemergence herbicidal rating AMBEL: 0.0
[9]; rate 0.1250 kg/ha
  Preemergence herbicidal rating AMBEL: 1.0
[9]; rate 0.2500 kg/ha
  Preemergence herbicidal rating AMBEL: 1.0
[10]; rate 0.0156 kg/ha
  Preemergence herbicidal rating TRZAWR: 0.0
[10]; rate 0.0313 kg/ha
  Preemergence herbicidal rating TRZAWR: 0.0
[10]; rate 0.0625 kg/ha
  Preemergence herbicidal rating TRZAWR: 0.0
[10]; rate 0.1250 kg/ha
  Preemergence herbicidal rating TRZAWR: 0.0
[10]; rate 0.2500 kg/ha
  Preemergence herbicidal rating TRZAWR: 0.0
[11]; 0.0313 kg/ha
  CYPSE herbicidal effect rating: 6.0
[11]; 0.0625 kg/ha
  CYPSE herbicidal effect rating: 6.0
[11]; 0.1250 kg/ha
  CYPSE herbicidal effect rating: 7.0
[11]; 0.2500 kg/ha
  CYPSE herbicidal effect rating: 9.0
[12]; rate 0.0156 kg/ha
  Preemergence herbicidal rating IPOHE: 0.0
[12]; rate 0.0313 kg/ha
  Preemergence herbicidal rating IPOHE: 0.0
[12]; rate 0.0625 kg/ha
  Preemergence herbicidal rating IPOHE: 0.0
[12]; rate 0.1250 kg/ha
  Preemergence herbicidal rating IPOHE: 0.0
[12]; rate 0.2500 kg/ha
  Preemergence herbicidal rating IPOHE: 3.0
[13]; 0.0313 kg/ha
  CYPIR herbicidal effect rating: 5.0
[13]; 0.0625 kg/ha
  CYPIR herbicidal effect rating: 5.0
[13]; 0.1250 kg/ha
  CYPIR herbicidal effect rating: 6.0
[13]; 0.2500 kg/ha
  CYPIR herbicidal effect rating: 9.0
[14]; Rate 0.0313 kg/ha
  Herbicidal rating CYPSE: 6.0
[14]; Rate 0.0625 kg/ha
  Herbicidal rating CYPSE: 6.0
[14]; Rate 0.1250 kg/ha
  Herbicidal rating CYPSE: 7.0
[14]; Rate 0.2500 kg/ha
  Herbicidal rating CYPSE: 9.0
